# Laboratory results reported in patent US5817669A, “Compounds, processes for the preparation thereof and anti-tumor agents” (Dainippon Pharmaceutical Co., Ltd., priority 1994, dated 1998).
# Key:
# [1] = test system: colon 26 murine tumor cells; assay: Tumor growth inhibition effect on colon 26 murine tumor cells implanted mice; type: in vivo, SLC: CDF1 mice; conditions: Mus musculus, Colon 26, 504 h; ip, 1.56 mg/kg once a day, days 1-9; day 21 or 22; read-out: Tumor growth inhibition rate IR (%)
# Method in brief: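 CDF1 female mice (7–9 weeks, 7 per group) implanted intracutaneously in the abdomen with 2% brei of colon 26 cells. Compound given ip once daily from day 1 to day 9. Tumor weight estimated from diameters on day 21 or 22; IR % = [1 − (treated MTW/control MTW)] × 100.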
# [2] = test system: WiDr human colorectal cancer; assay: In vitro anti-tumor activity against WiDr human colorectal cancer (MTT); type: cell-based; conditions: 72 h, MTT, read-out: IC50
# Method in brief: (§1)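 500–2,000 cells per well were pre-cultured 20 h at 37° C, 5% CO2, then exposed to test compound for 72 h. MTT (5 mg/ml) was added for 4 h, supernatant removed and formazan dissolved in DMSO.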
# [3] = test system: murine P388 lymphocytic leukemia cells; assay: In vitro anti-tumor activity against murine P388 lymphocytic leukemia cells (MTT, 72 h); type: cell-based; conditions: Mus musculus; murine P388 cells, 72 h, MTT; read-out: IC50 (50% proliferation inhibitory concentration)
# Method in brief: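 MTT assay, 72 h exposure; formazan dissolved in DMSO after centrifugation and supernatant removal. Absorbance read at 570 nm with 690 nm reference. IC50 (μg/ml) by least squares.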
# [4] = test system: KB human nasopharynx cancer; assay: In vitro anti-tumor activity against KB human nasopharynx cancer (MTT); type: cell-based; conditions: KB, 72 h, MTT, read-out: IC50
# Method in brief: as §1
# [5] = test system: MKN45 human stomach cancer; assay: In vitro anti-tumor activity against MKN45 human stomach cancer (MTT); type: cell-based; conditions: MKN-45, MKN45, 72 h, MTT, read-out: IC50
# Method in brief: as §1
smiles,measurement,setting,value
"CN[C@@H]1CN(c2ccc3c(=O)c(C(=O)O)cn(-c4nccs4)c3n2)C[C@H]1OC.Cl (relative stereo) [Compound 1-1, 1,4-dihydro-7-(trans-3-methoxy-4-methylamino-1-pyrrolidinyl)-4-oxo-1-(2-thiazolyl)-1,8-naphthyridine-3-carboxylic acid hydrochloride]",inhibition in vivo at 1.56 mg/kg,[1],86%
same,IC50,[2],0.379 µg/mL
same,IC50,[3],0.0107 µg/mL
same,IC50,[4],0.11 µg/mL
same,IC50,[5],0.15 µg/mL
